The IC50 is the midpoint of a concentration-inhibition curve.

For 28 compounds, IC50 results are on record in patent US20220153746A1, “NITROGEN OXIDE-DONATING PDE-5 AND/OR PDE-6 INHIBITOR COMPOUNDS, AND USES THEREOF” (ILDONG PHARMACEUTICAL CO., LTD., priority 2020, published 2022).

One assay has as its target human PDE-6C (Homo sapiens, UniProt P51160). Briefly: Human PDE-6C inhibition assay (fluorescence polarization, FAM-cGMP). The assay is classed as biochemical. To be noted: read-out: IC50 (μM) PDE6C.
The target in a further assay is human PDE-5A1 (Homo sapiens, UniProt O76074). Put plainly: Human PDE-5A1 inhibition assay (fluorescence polarization, FAM-cGMP). To be noted: read-out: IC50 (μM) PDE5A1. The assay is classed as biochemical. (Polarisation of emitted light reports the rotation of a fluorescent probe.)

Molecules are shown by their SMILES.

Chain of human PDE-6C (P51160 whole entry): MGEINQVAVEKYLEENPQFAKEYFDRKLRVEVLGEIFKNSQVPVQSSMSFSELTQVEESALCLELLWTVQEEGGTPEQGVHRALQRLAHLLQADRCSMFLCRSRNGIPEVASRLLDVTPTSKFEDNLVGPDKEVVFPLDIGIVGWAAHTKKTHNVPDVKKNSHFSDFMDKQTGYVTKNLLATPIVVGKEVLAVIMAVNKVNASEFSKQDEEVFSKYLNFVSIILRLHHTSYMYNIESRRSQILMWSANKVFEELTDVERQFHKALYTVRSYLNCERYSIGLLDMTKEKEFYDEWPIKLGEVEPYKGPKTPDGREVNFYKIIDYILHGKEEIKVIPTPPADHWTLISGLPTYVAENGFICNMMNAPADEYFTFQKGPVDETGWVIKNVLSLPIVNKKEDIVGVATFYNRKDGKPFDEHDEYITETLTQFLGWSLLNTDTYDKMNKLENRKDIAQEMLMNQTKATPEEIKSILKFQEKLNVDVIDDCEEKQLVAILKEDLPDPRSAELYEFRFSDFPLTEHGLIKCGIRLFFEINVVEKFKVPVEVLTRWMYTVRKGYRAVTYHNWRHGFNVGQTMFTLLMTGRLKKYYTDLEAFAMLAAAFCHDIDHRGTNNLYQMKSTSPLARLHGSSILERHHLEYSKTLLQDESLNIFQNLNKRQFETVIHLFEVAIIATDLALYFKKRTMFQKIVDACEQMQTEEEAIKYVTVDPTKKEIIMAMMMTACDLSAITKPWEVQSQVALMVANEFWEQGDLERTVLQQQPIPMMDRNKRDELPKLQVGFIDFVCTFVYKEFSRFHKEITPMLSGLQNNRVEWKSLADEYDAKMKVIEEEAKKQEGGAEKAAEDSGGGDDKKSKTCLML

For `CCCc1nn(C)c2c(=O)[nH]c(-c3cc(S(=O)(=O)N4CC(O)C4)ccc3OCC)nc12` [Compound 1, 5-(2-ethoxy-5-((3-hydroxyazetidin-1-yl)sulfonyl)phenyl)-1-methyl-3-propyl-1,6-dihydro-7H-pyrazolo[4,3-d] pyrimidin-7-one], the half-inhibitory concentration (IC50) on human PDE-6C and at human PDE-5A1 was 0.01 to 0.1 µM in each case.

In the case of `CCCc1nn(C)c2c(=O)[nH]c(-c3cc(S(=O)(=O)N4CC(CO)C4)ccc3OCC)nc12` [Compound 2, 5-(2-ethoxy-5-((3-(hydroxymethyl)azetidin-1-yl)sulfonyl)phenyl)-1-methyl-3-propyl-1,6-dihydro-7H-pyrazolo[4,3-d]pyrimidin-7-one], the IC50 at human PDE-6C and on human PDE-5A1 was 0.01 to 0.1 µM throughout.

On to `CCCc1nn(C)c2c(=O)[nH]c(-c3cc(S(=O)(=O)N4CC(CCO)C4)ccc3OCC)nc12` [Compound 3, 5-(2-ethoxy-5-((3-(2-hydroxyethyl)azetidin-1-yl)sulfonyl)phenyl)-1-methyl-3-propyl-1,6-dihydro-7H-pyrazolo[4,3-d]pyrimidin-7-one], for which the 50% inhibitory concentration (IC50) on human PDE-6C and at human PDE-5A1 was below 0.01 µM each time.

Turning to `CCCc1nn(C)c2c(=O)[nH]c(-c3cc(S(=O)(=O)N4CC(CN)C4)ccc3OCC)nc12` [Compound 5, 5-(5-((3-(aminomethyl)azetidin-1-yl)sulfonyl)-2-ethoxyphenyl)-1-methyl-3-propyl-1,6-dihydro-7H-pyrazolo[4,3-d] pyrimidin-7-one], the half-inhibitory concentration (IC50) at human PDE-6C was 0.01 to 0.1 µM; on human PDE-5A1, above 0.1 µM.

With `CCCc1nn(C)c2c(=O)[nH]c(-c3cc(S(=O)(=O)NC4CN(CCO)C4)ccc3OCC)nc12` [Compound 6, 4-ethoxy-N-(1-(2-hydroxyethyl)azetidin-3-yl)-3-(1-methyl-7-oxo-3-propyl-6,7-dihydro-1H-pyrazolo[4,3-d]pyrimidin-5-yl)benzenesulfonamide], the IC50 on human PDE-6C and on human PDE-5A1 was 0.01 to 0.1 µM in each case.

Consider `CCCc1nn(C)c2c(=O)[nH]c(-c3cc(S(=O)(=O)NC4CN(CCCO)C4)ccc3OCC)nc12` [Compound 7, 4-ethoxy-N-(1-(3-hydroxypropyl)azetidin-3-yl)-3-(1-methyl-7-oxo-3-propyl-6,7-dihydro-1H-pyrazolo[4,3-d]pyrimidin-5-yl)benzenesulfonamide], for which the half-inhibitory concentration (IC50) on human PDE-6C and at human PDE-5A1 was 0.01 to 0.1 µM in each case.

In the case of `CCCc1nn(C)c2c(=O)[nH]c(-c3cc(S(=O)(=O)NC4CN(CCCCO)C4)ccc3OCC)nc12` [Compound 8, 4-ethoxy-N-(1-(4-hydroxybutyl)azetidin-3-yl)-3-(1-methyl-7-oxo-3-propyl-6,7-dihydro-1H-pyrazolo[4,3-d]pyrimidin-5-yl)benzenesulfonamide], the IC50 on human PDE-6C and on human PDE-5A1 was 0.01 to 0.1 µM in each case.

Consider `CCCc1nc(C)c2c(=O)[nH]c(-c3cc(S(=O)(=O)N4CC(O)C4)ccc3OCC)nn12` [Compound 41, 2-(2-ethoxy-5-((3-hydroxyazetidin-1-yl)sulfonyl)phenyl)-5-methyl-7-propylimidazo[5,1-f][1,2,4]triazin-4(3H)-one], for which the 50% inhibitory concentration (IC50) at human PDE-5A1 was below 0.01 µM.

Turning to `CCCc1nc(C)c2c(=O)[nH]c(-c3cc(S(=O)(=O)N4CC(CO)C4)ccc3OCC)nn12` [Compound 42, 2-(2-ethoxy-5-((3-(hydroxymethyl)azetidin-1-yl)sulfonyl)phenyl)-5-methyl-7-propylimidazo[5,1-f][1,2,4]triazin-4(3H)-one], at human PDE-5A1, the IC50 was below 0.01 µM.

Consider `CCCc1nc(C)c2c(=O)[nH]c(-c3cc(S(=O)(=O)N4CC(CCO)C4)ccc3OCC)nn12` [Compound 43, 2-(2-ethoxy-5-((3-(2-hydroxyethyl)azetidin-1-yl)sulfonyl)phenyl)-5-methyl-7-propylimidazo[5,1-f][1,2,4]triazin-4(3H)-one], for which, at human PDE-5A1, the concentration for half-maximal inhibition (IC50) was below 0.01 µM.

Take `CCCc1nc(C)c2c(=O)[nH]c(-c3cc(S(=O)(=O)N4CC(CCCO)C4)ccc3OCC)nn12` [Compound 44, 2-(2-ethoxy-5-((3-(3-hydroxypropyl)azetidin-1-yl)sulfonyl)phenyl)-5-methyl-7-propylimidazo[5,1-f][1,2,4]triazin-4(3H)-one]: the half-inhibitory concentration (IC50) on human PDE-5A1 is below 0.01 µM.

For the compound `CCCc1nc(C)c2c(=O)[nH]c(-c3cc(S(=O)(=O)N4CC(CN)C4)ccc3OCC)nn12` [Compound 45], the half-inhibitory concentration (IC50) at human PDE-5A1 is below 0.01 µM.

For the compound `CCCc1nc(C)c2c(=O)[nH]c(-c3cc(S(=O)(=O)NC4CN(CCO)C4)ccc3OCC)nn12` [Compound 46, 4-ethoxy-N-(1-(2-hydroxyethyl)azetidin-3-yl)-3-(5-methyl-4-oxo-7-propyl-3,4-dihydroimidazo[5,1-f][1,2,4]triazin-2-yl)benzenesulfonamide], at human PDE-5A1, the 50% inhibitory concentration (IC50) was below 0.01 µM.

`CCCc1nc(C)c2c(=O)[nH]c(-c3cc(S(=O)(=O)NC4CN(CCCO)C4)ccc3OCC)nn12` [Compound 47, 4-ethoxy-N-(1-(3-hydroxypropyl)azetidin-3-yl)-3-(5-methyl-4-oxo-7-propyl-3,4-dihydroimidazo[5,1-f][1,2,4]triazin-2-yl)benzenesulfonamide]: the IC50 at human PDE-5A1 is below 0.01 µM.

For `CCCc1nc(C)c2c(=O)[nH]c(-c3cc(S(=O)(=O)N4CC(NCCO)C4)ccc3OCC)nn12` [Compound 49, 2-(2-ethoxy-5-((3-((2-hydroxyethyl)amino)azetidin-1-yl)sulfonyl)phenyl)-5-methyl-7-propylimidazo[5,1-f][1,2,4]triazin-4(3H)-one], the concentration for half-maximal inhibition (IC50) on human PDE-5A1 was below 0.01 µM.

As to `CCCc1nc(C)c2c(=O)[nH]c(-c3cc(S(=O)(=O)N4CC(NCCCO)C4)ccc3OCC)nn12` [Compound 50, 2-(2-ethoxy-5-((3-((3-hydroxypropyl)amino)azetidin-1-yl)sulfonyl)phenyl)-5-methyl-7-propylimidazo[5,1-f][1,2,4]triazin-4(3H)-one], the IC50 at human PDE-5A1 was below 0.01 µM.

`CCCc1nc(C)c2c(=O)[nH]c(-c3cc(S(=O)(=O)N4CC(N(C)CCO)C4)ccc3OCC)nn12` [Compound 52, 2-(2-ethoxy-5-((3-((2-hydroxyethyl)(methyl)amino)azetidin-1-yl)sulfonyl)phenyl)-5-methyl-7-propylimidazo[5,1-f][1,2,4]triazin-4(3H)-one]: the IC50 on human PDE-5A1 is below 0.01 µM.

Turning to `CCCc1nc(C)c2c(=O)[nH]c(-c3cc(S(=O)(=O)N4CC(N(C)CCCO)C4)ccc3OCC)nn12` [Compound 53, 2-(2-ethoxy-5-((3-((3-hydroxypropyl)(methyl)amino)azetidin-1-yl)sulfonyl)phenyl)-5-methyl-7-propylimidazo[5,1-f][1,2,4]triazin-4(3H)-one], the 50% inhibitory concentration (IC50) at human PDE-5A1 is below 0.01 µM.

Turning to `CCCc1nc(C)c2c(=O)[nH]c(-c3cc(S(=O)(=O)N4CC(O[N+](=O)[O-])C4)ccc3OCC)nn12` [Compound 55, 1-((4-ethoxy-3-(5-methyl-4-oxo-7-propyl-3,4-dihydroimidazo[5,1-f][1,2,4]triazin-2-yl)phenyl)sulfonyl)azetidin-3-yl nitrate], the IC50 at human PDE-5A1 is below 0.01 µM.

Regarding `CCCc1nc(C)c2c(=O)[nH]c(-c3cc(S(=O)(=O)N4CC(CO[N+](=O)[O-])C4)ccc3OCC)nn12` [Compound 56, (1-((4-ethoxy-3-(5-methyl-4-oxo-7-propyl-3,4-dihydroimidazo[5,1-f][1,2,4]triazin-2-yl)phenyl)sulfonyl)azetidin-3-yl)methyl nitrate], the IC50 at human PDE-5A1 is below 0.01 µM.

With `CCCc1nc(C)c2c(=O)[nH]c(-c3cc(S(=O)(=O)N4CC(CCO[N+](=O)[O-])C4)ccc3OCC)nn12` [Compound 57, 2-(1-((4-ethoxy-3-(5-methyl-4-oxo-7-propyl-3,4-dihydroimidazo[5,1-f][1,2,4]triazin-2-yl)phenyl)sulfonyl)azetidin-3-yl) ethyl nitrate], at human PDE-5A1, the IC50 was below 0.01 µM.

Consider `CCCc1nc(C)c2c(=O)[nH]c(-c3cc(S(=O)(=O)N4CC(CCCO[N+](=O)[O-])C4)ccc3OCC)nn12` [Compound 58, 3-(1-((4-ethoxy-3-(5-methyl-4-oxo-7-propyl-3,4-dihydroimidazo[5,1-f][1,2,4]triazin-2-yl)phenyl)sulfonyl)azetidin-3-yl) propyl nitrate], for which the IC50 on human PDE-5A1 is below 0.01 µM.

Regarding `CCCc1nc(C)c2c(=O)[nH]c(-c3cc(S(=O)(=O)NC4CN(CCO[N+](=O)[O-])C4)ccc3OCC)nn12` [Compound 59, 2-(3-((4-ethoxy-3-(5-methyl-4-oxo-7-propyl-3,4-dihydroimidazo[5,1-f][1,2,4]triazin-2-yl)phenyl)sulfonamido)azetidin-1-yl)ethyl nitrate], the 50% inhibitory concentration (IC50) on human PDE-5A1 is below 0.01 µM.

Turning to `CCCc1nc(C)c2c(=O)[nH]c(-c3cc(S(=O)(=O)NC4CN(CCCO[N+](=O)[O-])C4)ccc3OCC)nn12` [Compound 60, 3-(3-((4-ethoxy-3-(5-methyl-4-oxo-7-propyl-3,4-dihydroimidazo[5,1-f][1,2,4]triazin-2-yl)phenyl)sulfonamido)azetidin-1-yl)propyl nitrate], at human PDE-5A1, the concentration for half-maximal inhibition (IC50) is below 0.01 µM.

Regarding `CCCc1nc(C)c2c(=O)[nH]c(-c3cc(S(=O)(=O)N4CC(NCCO[N+](=O)[O-])C4)ccc3OCC)nn12` [Compound 61, 2-((1-((4-ethoxy-3-(5-methyl-4-oxo-7-propyl-3,4-dihydroimidazo[5,1-f][1,2,4]triazin-2-yl)phenyl)sulfonyl)azetidin-3-yl)amino)ethyl nitrate], the concentration for half-maximal inhibition (IC50) on human PDE-5A1 is below 0.01 µM.

Take `CCCc1nc(C)c2c(=O)[nH]c(-c3cc(S(=O)(=O)N4CC(NCCCO[N+](=O)[O-])C4)ccc3OCC)nn12` [Compound 62, 3-((1-((4-ethoxy-3-(5-methyl-4-oxo-7-propyl-3,4-dihydroimidazo[5,1-f][1,2,4]triazin-2-yl)phenyl)sulfonyl)azetidin-3-yl)amino)propyl nitrate]: the IC50 at human PDE-5A1 is below 0.01 µM.

Regarding `CCCc1nc(C)c2c(=O)[nH]c(-c3cc(S(=O)(=O)N4CC(N(C)CCO[N+](=O)[O-])C4)ccc3OCC)nn12` [Compound 63, 2-((1-((4-ethoxy-3-(5-methyl-4-oxo-7-propyl-3,4-dihydroimidazo[5,1-f][1,2,4]triazin-2-yl)phenyl)sulfonyl)azetidin-3-yl)(methyl)amino)ethyl nitrate], the IC50 at human PDE-5A1 is below 0.01 µM.

In the case of `CCCc1nc(C)c2c(=O)[nH]c(-c3cc(S(=O)(=O)N4CC(N(C)CCCO[N+](=O)[O-])C4)ccc3OCC)nn12` [Compound 64, 3-((1-((4-ethoxy-3-(5-methyl-4-oxo-7-propyl-3,4-dihydroimidazo[5,1-f][1,2,4]triazin-2-yl)phenyl)sulfonyl)azetidin-3-yl)(methyl)amino)propyl nitrate], the IC50 on human PDE-5A1 was below 0.01 µM.
